ChEMBL document CHEMBL1122248, “Cloxacepride and related compounds: a new series of orally active antiallergic compounds” (1983)

What was measured:
Rattus norvegicus [1] = assay: Tested for PCA activity in rat at 200 mg/kg dose; type: functional
Rattus norvegicus [2] = assay: PCA activity of compound in rat at 100 mg/kg dose; type: functional
Rattus norvegicus [3] = assay: Tested for PCA activity of compound in rat at 50 mg/kg dose; type: functional
Rattus norvegicus [4] = assay: Tested for anti PCA- activity when compound was administered orally 60 min before challenge in exp2; type: functional; conditions: po
Rattus norvegicus [5] = assay: Tested for anti PCA- activity when compound was administered orally 60 min before challenge in exp1; type: functional; conditions: po
Rattus norvegicus [6] = assay: Tested for anti PCA- activity when compound was administered intravenously 60 min before challenge in rat; type: functional; conditions: iv
Rattus norvegicus [7] = assay: Tested for PCA activity of compound in rat at 1.0 mg/kg intravenous dose; type: functional
Rattus norvegicus [8] = assay: Tested for PCA activity of compound in rat at 5 mg/kg intravenous dose; type: functional
Rattus norvegicus [9] = assay: Tested for antigenic challenge time, time measured was immediate when compound was administered before challenge in rat;Immed = Immediate; type: functional, organism-based
Rattus norvegicus [10] = assay: Tested for PCA activity of compound in rat at 2.5 mg/kg intravenous dose; type: functional
Rattus norvegicus [11] = assay: Tested for antigenic challenge time, time measured was immediate when compound was administered before challenge in rat; Immed = Immediate; type: functional, organism-based
Rattus norvegicus [12] = assay: Tested for anti PCA- activity when compound was administered perorally 60 min before challenge in; type: functional; conditions: po
Rattus norvegicus [13] = assay: Tested for PCA activity of compound in rat at 50 mg/kg dose at 60 min challenge time.; type: functional; conditions: 1 h
Rattus norvegicus [14] = assay: Tested for antigenic challenge time, time measured was immediate when compound was administered before challenge in rat; immediate; type: functional, organism-based
Rattus norvegicus [15] = assay: Tested for PCA activity of compound in rat at 10 mg/kg intravenous dose; type: functional
Rattus norvegicus [16] = assay: Tested for PCA activity of compound in rat at 25 mg/kg dose; type: functional

| Structure (SMILES) | inhibition in vivo at 200 mg/kg (Rattus norvegicus [1]) [%] | inhibition in vivo at 100 mg/kg (Rattus norvegicus [2]) [%] | also measured |
| --- | --- | --- | --- |
| CCN(CC)CCNC(=O)c1ccc(NC(=O)COc2ccc(Cl)cc2)cc1 | 0 | – | – |
| COc1cc(NC(=O)COc2ccc(Cl)cc2)c(Cl)cc1C(=O)N1CCN(C/C=C/c2ccccc2)CC1 | – | 0 | – |
| CCN(CC)CCNC(=O)c1cc(Cl)c(NC(=O)COc2ccc(C)cc2)cc1OC | – | 22 | – |
| CCN(CC)CCNC(=O)c1ccc(NC(=O)COc2ccccc2)c(OC)c1 | 20 | – | – |
| CCN(CC)CCNC(=O)c1cc(NC(=O)COc2ccc(Cl)cc2)ccc1OC(C)=O | – | 0 | – |
| CCN(CC)CCNC(=O)c1cc(Cl)c(NC(=O)COc2cccc(C(F)(F)F)c2)cc1OC.Cl | 40 | 53 | – |
| CCN(CC)CCNC(=O)c1cc(Cl)c(NC(=O)C(C)Oc2ccc(Cl)cc2)cc1OC.Cl (stereo not drawn) | 32 | 62 | inhibition in vivo at 50 mg/kg (Rattus norvegicus [3]): 41%; ED50 (Rattus norvegicus [4]): 60.9 mg/kg; ED50 (Rattus norvegicus [5]): 64.5 mg/kg |
| CCN(CC)CCNC(=O)c1ccc(Cl)c(NC(=O)COc2ccc(Cl)cc2)c1 | – | 7 | – |
| O=C([O-])c1cc(=O)c2c(OCC(O)COc3cccc4oc(C(=O)[O-])cc(=O)c34)cccc2o1.[Na+].[Na+] [CROMOLYN SODIUM] | – | – | ED50 (Rattus norvegicus [6]): 2 mg/kg; inhibition in vivo at 1 mg/kg (Rattus norvegicus [7]): 28%; inhibition in vivo at 5 mg/kg (Rattus norvegicus [8]): 78%; Challenge time (Rattus norvegicus [9]): Immed; inhibition in vivo at 2.5 mg/kg (Rattus norvegicus [10]): 58%; Challenge time (Rattus norvegicus [11]): Immed |
| CCN(CC)CCNC(=O)c1cc(Cl)ccc1NC(=O)COc1ccc(F)cc1 | – | 0 | – |
| CCN(CC)CCNC(=O)c1cc(Cl)ccc1NC(=O)COc1ccc(Cl)cc1 | – | 0 | – |
| Cn1c(=O)c2nc[nH]c2n(C)c1=O.O [THEOPHYLLINE] | – | – | ED50 (Rattus norvegicus [12]): 47.2 mg/kg |
| CCN(CC)CCNC(=O)c1cc(Cl)c(NC(=O)COc2ccc(Cl)cc2)cc1OC.Cl [CLOXACEPRIDE HYDROCHLORIDE] | 75 | 69 | inhibition in vivo at 50 mg/kg (Rattus norvegicus [13]): 49%; ED50 (Rattus norvegicus [4]): 46.9 mg/kg; ED50 (Rattus norvegicus [5]): 49 mg/kg |
| CCN(CC)CCNC(=O)c1cc(Cl)c(N)cc1OC [METOCLOPRAMIDE] | – | 14 | Challenge time (Rattus norvegicus [14]): Immediate; inhibition in vivo at 10 mg/kg (Rattus norvegicus [15]): 84% |
| CCN(CC)CCNC(=O)c1ccc(NC(=O)COc2ccc(Cl)cc2)c(Cl)c1.O=C(O)CC(O)(CC(=O)O)C(=O)O | 0 | 14 | – |
| CCN(CC)CCCNC(=O)c1cc(Cl)c(NC(=O)COc2ccc(Cl)cc2)cc1OC | 20 | – | – |
| COc1cc(NC(=O)COc2ccc(Cl)cc2)c(Cl)cc1C(=O)NCc1cccnc1 | 20 | – | – |
| CCN(CC)CCNC(=O)c1cc(Cl)c(NC(=O)COc2ccc(I)cc2)cc1OC | 27 | 0 | – |
| CCOC(=O)c1cc(Cl)c(NC(=O)COc2ccc(Cl)cc2)cc1OC | 20 | 93 | – |

| Structure (SMILES) | inhibition in vivo at 200 mg/kg (Rattus norvegicus [1]) [%] | inhibition in vivo at 100 mg/kg (Rattus norvegicus [2]) [%] | also measured |
| --- | --- | --- | --- |
| CCN(CC)CCNC(=O)c1cc(Cl)c(NC(=O)C(C)(C)Oc2ccc(Cl)cc2)cc1OC.Cl | 20 | 0 | – |
| CCN(CC)CCNC(=O)c1cc(Cl)c(NC(=O)COc2ccccc2Cl)cc1OC | 0 | – | – |
| CCN(CC)CCNC(=O)c1ccc(NC(=O)COc2ccc(Cl)cc2)c(OC)c1 | 20 | – | – |
| CCN(CC)CCNC(=O)c1cc(Cl)c(NC(=O)CSc2ccccc2)cc1OC | – | 26 | – |
| CCN(CC)CCNC(=O)c1cc(Cl)c(NC(=O)C(Oc2ccc(Cl)cc2)Oc2ccc(Cl)cc2)cc1OC | 0 | – | – |
| CCN(CC)CCNC(=O)c1cc(Cl)c(NC(=O)COc2ccc(Cl)c(Cl)c2)cc1OC.Cl | 0 | 0 | – |
| CCN(CC)CCNC(=O)c1cc(Cl)c(NC(=O)COc2ccc(Cl)cc2Cl)cc1OC | 0 | – | – |
| COc1cc(NC(=O)COc2ccc(Cl)cc2)c(Cl)cc1C(=O)N1CCN(C)CC1 | – | 0 | – |
| CCN(CC)CCNC(=O)c1cc(Cl)c(NC(=O)CNc2ccccc2)cc1OC | – | 5 | – |
| COc1cc(NC(=O)COc2ccc(Cl)cc2)c(Cl)cc1NCCN1CCCC1 | 20 | – | – |
| O=C(O)c1ccc2oc3ccc(OCCO)cc3c(=O)c2c1 | – | 71 | – |
| CCN(CC)CCNC(=O)c1cc(Cl)c(NC(=O)COc2cccc(Cl)c2Cl)cc1OC | 0 | – | – |
| CCN(CC)CCNC(=O)c1cc(Cl)c(NC(=O)COc2ccccc2)cc1OC | 67 | 47 | – |
| CCN(CC)CCNC(=O)c1cc(Cl)c(NC(=O)COc2ccc(F)cc2)cc1OC | 67 | 33 | – |
| COc1cc(NC(=O)COc2ccc(Cl)cc2)c(Cl)cc1C(=O)N1CCN(C(c2ccccc2)c2ccccc2)CC1 | – | 0 | – |
| COc1cc(NC(=O)COc2ccc(Cl)cc2)c(Cl)cc1C(=O)O | 0 | – | – |
| CCN(CC)CCNC(=O)c1cccc(NC(=O)COc2ccc(Cl)cc2)c1 | – | 7 | – |
| CCN(CC)CCNC(=O)c1cc(Cl)c(NC(=O)COc2ccc(OC)cc2)cc1OC.Cl | 33 | 53 | – |
| CCN1CCCC1CNC(=O)c1cc(Cl)c(NC(=O)COc2ccc(Cl)cc2)cc1OC (stereo not drawn) | – | – | inhibition in vivo at 50 mg/kg (Rattus norvegicus [3]): 60%; inhibition in vivo at 25 mg/kg (Rattus norvegicus [16]): 53% |
